Where “and” joins values, the source holds several entries; their conditions need not be identical. Identical values can stand only once.
How the values were obtained:
[1] = system: NLuc-expressing C. parvum; test: NLuc C. parvum IFNγ-KO mouse infection model, oocyst shedding; assay type: in vivo
[2] = Mouse plasma, brain and GI exposure PK, Balb/c, 30 mg/kg PO; settings: Brains, 0.5 hr, individual samples
5-HT2B = molecular target: T1, 5-HT2B (Homo sapiens, UniProt P41595); test: Cerep binding assay; settings: agonist radioligand, mean, read-out: % inhibition of control specific binding
T1 construct: Cerep (Eurofins, France)
T1 sequence (P41595 whole entry): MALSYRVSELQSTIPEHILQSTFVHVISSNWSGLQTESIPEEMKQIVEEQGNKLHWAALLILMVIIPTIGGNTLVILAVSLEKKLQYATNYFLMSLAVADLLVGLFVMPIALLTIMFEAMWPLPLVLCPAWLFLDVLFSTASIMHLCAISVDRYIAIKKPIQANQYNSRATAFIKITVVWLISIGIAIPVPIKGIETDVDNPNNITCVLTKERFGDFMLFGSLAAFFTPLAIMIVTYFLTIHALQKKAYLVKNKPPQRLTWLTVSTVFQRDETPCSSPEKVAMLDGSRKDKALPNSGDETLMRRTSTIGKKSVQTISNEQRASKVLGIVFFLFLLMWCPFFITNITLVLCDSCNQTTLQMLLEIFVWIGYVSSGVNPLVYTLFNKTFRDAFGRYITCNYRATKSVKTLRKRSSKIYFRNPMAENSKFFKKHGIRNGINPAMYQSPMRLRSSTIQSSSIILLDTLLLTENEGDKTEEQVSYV

[3] = system: NLuc-expressing C. parvum; design: method as in PMID 30830766; settings: 8 mg/kg QD x 5 PO, 20 days p.i.; cited from earlier work
C. parvum = settings: bovine, in vivo
[4] = system: micronuclei in interphase cells; test: In vitro micronucleus (IVMN) test
NLuc C. parvum = system: NLuc C. parvum; design: method as in PMID 30830766; settings: cited from earlier work
[5] = cited from earlier work
[6] = female, Balb/c, mouse, in vivo
[7] = dog, in vivo
HCT-8 cells = test: HCT-8 host cell count (Calibr); settings: read-out: HCT-8 Cell Count CC50; host cells infected with Sterling oocysts
HEK293T = test: 72H HEK293T Cytotoxicity; assay type: cell-based
[8] = system: C. parvum Bunch Grass Farms isolate; test: Calibr high-content imaging Cryptosporidium panel; assay type: cell-based, Cryptosporidium parvum; settings: Calibr Crypto Panel 2
C. hominis TU502 isolate = test: Calibr high-content imaging Cryptosporidium panel; assay type: cell-based, Cryptosporidium hominis
[9] = system: C. parvum U AZ Laboratory isolate; test: microbe, parasite or virus in culture; assay type: cell-based, Cryptosporidium parvum
[10] = system: C. parvum Zambriski Laboratory isolate; test: Calibr high-content imaging Cryptosporidium panel; assay type: cell-based, Cryptosporidium parvum; settings: Calibr Crypto Panel 2
[11] = system: A-375, Hs294T, MEWO, and Colo678 carcinoma cell lines

CC1(C)Cn2nc(-c3ccc4cc(OC5CC5)ccc4c3)c(C(N)=O)c2NC1O (stereo not shown) [compound 1862]
RLU Raw ([1]; 8 mg/kg x 3 d, Day 6): 1384352 RLU | RLU Raw ([1]; 8 mg/kg x 3 d, Day 7): 821824 RLU | RLU Raw ([1]; 8 mg/kg x 3 d, Day 8): 1485152 RLU | RLU Raw ([1]; 8 mg/kg x 3 d, Day 9): 162144 RLU | RLU Raw ([1]; 8 mg/kg x 3 d, Day 10): 41552 RLU | RLU Raw ([1]; 8 mg/kg x 3 d, Day 13): 6176 RLU | RLU Raw ([1]; 8 mg/kg x 3 d, Day 15): 4992 RLU | RLU Raw ([1]; 8 mg/kg x 3 d, Day 17): 608 RLU | RLU Raw ([1]; 8 mg/kg x 3 d, Day 20): 1296 RLU | RLU standardized by fecal weight (Normalized) ([1]; 8 mg/kg x 3 d, day 6 p.i.): 226943 RLU | RLU standardized by fecal weight (Normalized) ([1]; 8 mg/kg x 3 d, day 7 p.i.): 75397 RLU | RLU standardized by fecal weight (Normalized) ([1]; 8 mg/kg x 3 d, day 8 p.i.): 146320 RLU | RLU standardized by fecal weight (Normalized) ([1]; 8 mg/kg x 3 d, day 9 p.i.): 15516 RLU | RLU standardized by fecal weight (Normalized) ([1]; 8 mg/kg x 3 d, day 10 p.i.): 4240 RLU | RLU standardized by fecal weight (Normalized) ([1]; 8 mg/kg x 3 d, day 13 p.i.): 468 RLU | RLU standardized by fecal weight (Normalized) ([1]; 8 mg/kg x 3 d, day 15 p.i.): 409 RLU | RLU standardized by fecal weight (Normalized) ([1]; 8 mg/kg x 3 d, day 17 p.i.): 61 RLU | RLU standardized by fecal weight (Normalized) ([1]; 8 mg/kg x 3 d, day 20 p.i.): 214 RLU | RLU Raw ([1]; 15 mg/kg x 3 d, Day 6): 1490624 RLU | RLU Raw ([1]; 15 mg/kg x 3 d, Day 7): 876560 RLU | RLU Raw ([1]; 15 mg/kg x 3 d, Day 8): 670544 RLU | RLU Raw ([1]; 15 mg/kg x 3 d, Day 9): 9856 RLU | RLU Raw ([1]; 15 mg/kg x 3 d, Day 10): 2928 RLU | RLU Raw ([1]; 15 mg/kg x 3 d, Day 13): 512 RLU | RLU Raw ([1]; 15 mg/kg x 3 d, Day 15): 400 RLU | RLU Raw ([1]; 15 mg/kg x 3 d, Day 17): 288 RLU | RLU Raw ([1]; 15 mg/kg x 3 d, Day 20): 192 RLU | RLU standardized by fecal weight (Normalized) ([1]; 15 mg/kg x 3 d, day 6 p.i.): 200084 RLU | RLU standardized by fecal weight (Normalized) ([1]; 15 mg/kg x 3 d, day 7 p.i.): 110259 RLU | RLU standardized by fecal weight (Normalized) ([1]; 15 mg/kg x 3 d, day 8 p.i.): 111757 RLU | RLU standardized by fecal weight (Normalized) ([1]; 15 mg/kg x 3 d, day 9 p.i.): 1398 RLU | RLU standardized by fecal weight (Normalized) ([1]; 15 mg/kg x 3 d, day 10 p.i.): 284 RLU | RLU standardized by fecal weight (Normalized) ([1]; 15 mg/kg x 3 d, day 13 p.i.): 37 RLU | RLU standardized by fecal weight (Normalized) ([1]; 15 mg/kg x 3 d, day 15 p.i.): 29 RLU | RLU standardized by fecal weight (Normalized) ([1]; 15 mg/kg x 3 d, day 17 p.i.): 32 RLU | RLU standardized by fecal weight (Normalized) ([1]; 15 mg/kg x 3 d, day 20 p.i.): 66 RLU | RLU Raw ([1]; 30 mg/kg x 3 d, Day 6): 1093968 RLU | RLU Raw ([1]; 30 mg/kg x 3 d, Day 7): 650000 RLU | RLU Raw ([1]; 30 mg/kg x 3 d, Day 8): 37104 RLU | RLU Raw ([1]; 30 mg/kg x 3 d, Day 9): 1536 RLU | RLU Raw ([1]; 30 mg/kg x 3 d, Day 10): 336 RLU | RLU Raw ([1]; 30 mg/kg x 3 d, Day 13): 208 RLU | RLU Raw ([1]; 30 mg/kg x 3 d, Day 15): 240 RLU | RLU Raw ([1]; 30 mg/kg x 3 d, Day 17): 2640 RLU | RLU Raw ([1]; 30 mg/kg x 3 d, Day 20): 192 RLU | RLU standardized by fecal weight (Normalized) ([1]; 30 mg/kg x 3 d, day 6 p.i.): 163279 RLU | RLU standardized by fecal weight (Normalized) ([1]; 30 mg/kg x 3 d, day 7 p.i.): 191176 RLU | RLU standardized by fecal weight (Normalized) ([1]; 30 mg/kg x 3 d, day 8 p.i.): 11969 RLU | RLU standardized by fecal weight (Normalized) ([1]; 30 mg/kg x 3 d, day 9 p.i.): 290 RLU | RLU standardized by fecal weight (Normalized) ([1]; 30 mg/kg x 3 d, day 10 p.i.): 51 RLU | RLU standardized by fecal weight (Normalized) ([1]; 30 mg/kg x 3 d, day 13 p.i.): 29 RLU | RLU standardized by fecal weight (Normalized) ([1]; 30 mg/kg x 3 d, day 15 p.i.): 21 RLU | RLU standardized by fecal weight (Normalized) ([1]; 30 mg/kg x 3 d, day 17 p.i.): 290 RLU | RLU standardized by fecal weight (Normalized) ([1]; 30 mg/kg x 3 d, day 20 p.i.): 23 RLU | Brains concentration [2]: 0.0641 µM

CC(C)(CO)Cn1nc(-c2ccc3cc(OC4CC4)ccc3c2)c(C(N)=O)c1N [BKI-1708]
efficacy ([1]; 8 mg/kg QD x 3): failed to recapitulate efficacy | log reduction in oocyst shedding ([1]; 15 mg/kg x 2 days, day 20 p.i.): 2.1 log | log reduction vs peak infection levels of untreated control ([1]; 60, 30 and 15 mg/kg QD x 3, up to 20 days p.i.): > 4 log | day p.i. oocyst shedding reached LoD ([1]; BKI-1708 15 mg/kg QD x 3 PO): ≤ 13 days | day p.i. oocyst shedding reached LoD ([1]; BKI-1708 30 mg/kg QD x 3 PO): ≤ 13 days | day p.i. oocyst shedding below LoD ([1]; BKI-1708 60 mg/kg QD x 3 PO): ≤ 10 days | log reduction in oocyst shedding ([1]; single 15 mg/kg dose, 13 days p.i.): 1.4 log | log reduction in oocyst shedding ([1]; single 15 mg/kg dose, 20 days p.i.): 1.7 log | log reduction in oocyst shedding ([1]; single 60 mg/kg dose, 13 days p.i.): 3.5 log | inhibition at 10 µM (5-HT2B): 24.3% | log reduction in oocyst shedding over untreated controls [3]: > 3 log | Clinical scores (C. parvum): 10.5 | Weights, %∆ (C. parvum): 6.329% and 8.511% and 5.263% | Weights, %∆, mean (C. parvum): 6.701% | IVMN test result [4]: no change in the frequency of micronucleated cells | EC50 (NLuc C. parvum): 0.4 µM | maximum tolerated single dose [5]: 400 mg/kg | postnatal mortality (%) [6]: 0% | plasma level without appreciable effect on MAP, HR, contractility, SVR, CO, QT, QRS, PR [7]: 95 µM

CCOc1ccc2cc(-c3nn(CC4CCN(C)CC4)c4ncnc(N)c34)ccc2c1 [BKI-1294]
CC50 (HCT-8 cells): > 25 µM | CC50 (HEK293T): 22.2 µM | EC50 ([8]; read-out: Bunch Grass Farm C. parvum Spot Count EC50): 2.02 µM | EC90 ([8]; read-out: Bunch Grass Farm C. parvum Spot Count EC90): 5.44 µM | EC50 (C. hominis TU502 isolate; Calibr Crypto Panel 2, 2018-07-02, read-out: C. hominis Spot Count EC50): 2.82 µM | EC90 (C. hominis TU502 isolate; Calibr Crypto Panel 2, read-out: C. hominis Spot Count EC90): 14.8 µM | EC50 ([9]; Calibr Crypto Panel 2, 2018-06-18, read-out: Sterling Lab C. parvum Spot Count EC50): 0.468 µM | EC90 ([9]; Calibr Crypto Panel 2, read-out: Sterling Lab C. parvum Spot Count EC90): 8.29 µM | EC50 ([10]; read-out: Wild C. parvum Spot Count EC50): 0.337 µM | EC90 ([10]; read-out: Wild C. parvum Spot Count EC90): 27.3 µM

CC(=O)Nc1cccc(-n2c(=O)n(C3CC3)c(=O)c3c(Nc4ccc(I)cc4F)n(C)c(=O)c(C)c32)c1 [Trametinib]
inhibitory concentration in MEK1 proliferation-dependent cell lines [11]: 7 to 60 nM

— publication PMC12310023 (PLOS Neglected Tropical Diseases, 2025)
